According to US6656969B2, “Methods and compositions for inhibiting the proliferation of prostate cancer cells” (Mayo Foundation for Medical Education and Research, priority 2001, dated 2003):

Columns and labels:
PSA = PSA quantification in spent media (Tandem-E PSA kit); format: cell-based, human; settings: LNCaP cells, 1 nM Mib, six days, normalized to cell number
Protocol: (§1) A human prostate cancer cell line, LNCaP (American Type Culture Collection (ATCC), Manassas, Va.), was cultured in RPMI 1640 medium (Mediatech, Herndon, Va.) supplemented with 5% fetal bovine serum (FBS) at 37° C. and 5% CO2 until reaching approximately 50-70% confluence. The media were changed to serum-free RPMI 1640 24 hrs prior to experiments being performed to deplete undesired steroids. […] Equivalent amounts of solvent were added to control cells.
(§2) For cell proliferation and PSA expression assays, LNCaP cells were seeded at 2×10^4 cells per well in 24 well plates. […] Six days after treatment, 400 μl of spent media were collected for total PSA protein measurements by the Tandem-E PSA kit (Hybritech Inc. San Diego, Calif.). An MTS assay was performed (Promega, Madison, Wis.) for measuring cell viability. Four wells per treatment were used for the above assays and it was repeated twice. PSA levels in spent media were normalized to cell number.

hsp70 = assay: Level of hsp70; format: cell-based
LNCaP cells = assay: Cell proliferation (MTS) assay, androgen-stimulated growth; format: cell-based, human; settings: six days; for androgen-stimulated cell growth: with 1 nM mibolerone (Mib)
Protocol: as §1, §2

c-fos = assay: Level of c-fos in LNCaP cells; format: cell-based, human
hsp90 = assay: Level of hsp90; format: cell-based
[1] = system: androgen-regulated genes (NKX 3.1, ODC, fkbp 51, Drg-1, PSA); assay: Northern blot of androgen-regulated genes in LNCaP cells; format: cell-based, human
Protocol: A denaturing RNA gel was run and transferred onto a nylon membrane (BioRad) according to the GeneScreen protocol (New England Nuclear). Fifteen μg of total RNA was loaded in each lane. cDNAs for PSA, ornithine decarboxylase (ODC), NKX 3.1, fkbp 51, Drg-1 and glyceraldehyde-3-phosphate dehydogenase (GAPDH) were labeled with [P^32]dCTP by random priming and used as probes. The hybridizations were performed according to the recommended protocol using ExpressHyb Hybridization Solution (Clontech, Palo Alto, Calif.). The films were autoradiographed at −70° C. overnight.

ARA70 = assay: Level of androgen receptor specific co-activator ARA70; format: cell-based
androgen receptor = biological target: T1, androgen receptor (Homo sapiens, UniProt P10275, T878A); format: cell-based; settings: LNCaP cells, 3.2 nM Mib
T1 construct: LNCaP cells express the androgen receptor; endogenous in cells; host or cells: LNCaP
T1 sequence (P10275 whole entry T878A): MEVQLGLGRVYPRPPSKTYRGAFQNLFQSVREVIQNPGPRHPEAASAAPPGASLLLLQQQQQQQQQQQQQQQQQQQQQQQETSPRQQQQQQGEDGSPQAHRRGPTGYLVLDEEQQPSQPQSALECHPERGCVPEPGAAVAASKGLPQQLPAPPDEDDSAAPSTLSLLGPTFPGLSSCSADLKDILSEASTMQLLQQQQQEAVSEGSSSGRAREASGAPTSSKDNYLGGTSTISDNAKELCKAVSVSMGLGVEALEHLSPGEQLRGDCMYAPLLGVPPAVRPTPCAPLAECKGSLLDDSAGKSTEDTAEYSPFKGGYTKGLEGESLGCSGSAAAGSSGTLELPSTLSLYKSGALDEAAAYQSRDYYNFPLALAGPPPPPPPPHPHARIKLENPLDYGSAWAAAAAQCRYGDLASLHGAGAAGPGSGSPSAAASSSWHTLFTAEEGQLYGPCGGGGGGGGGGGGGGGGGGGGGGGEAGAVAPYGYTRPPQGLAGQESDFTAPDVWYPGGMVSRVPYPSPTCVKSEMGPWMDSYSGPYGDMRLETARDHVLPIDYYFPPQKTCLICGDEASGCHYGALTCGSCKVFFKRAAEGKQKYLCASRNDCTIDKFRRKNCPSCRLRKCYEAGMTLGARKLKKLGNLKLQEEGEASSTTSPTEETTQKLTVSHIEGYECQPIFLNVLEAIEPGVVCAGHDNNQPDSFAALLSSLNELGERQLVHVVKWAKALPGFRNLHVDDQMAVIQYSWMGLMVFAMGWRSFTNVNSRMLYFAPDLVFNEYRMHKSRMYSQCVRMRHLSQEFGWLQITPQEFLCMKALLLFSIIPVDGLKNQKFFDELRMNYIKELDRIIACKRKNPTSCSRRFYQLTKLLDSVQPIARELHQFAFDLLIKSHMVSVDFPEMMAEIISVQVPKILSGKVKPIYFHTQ
Protocol: LNCaP or PC-3 cells were plated in 60 mm dishes. Cells were transiently transfected as described (Zhang et al., 1999, Endocrin, 140:1665-71) with either 3 copies of an hK2 ARE in a pGL3 promoter plasmid, CMV-β-gal, a human androgen receptor expression vector or a c-jun expression vector as indicated. The androgen receptor and c-jun constructs were driven by an SV40 promoter. LNCaP cells were transfected using liposome containing dimethyldioctadecyl-ammonium bromide (DDAB) (Sigma) and L-α-lecithin (Sigma) (4:10 w/w) and PC-3 cells were transfected using lipofectamine (Gibco BRL, Grand Island, N.Y.). […] Whole cell extracts were prepared according to Ren et al., (2000, Oncogene, 19:1924-32) and a luciferase assay was performed according to manufacturer's instructions (Promega). The CMV-β-galactosidase (β-gal) expression vector and the parental vector (pGL3) were included as controls in the above transfections. β-gal activity or total protein using the Bradford assay (BioRad, Hercules, Calif.) were assayed for normalization purposes. Luciferase activities were normalized to β-gal activities and presented as relative light units/mU β-gal. Each transfection was done three times and results were analyzed by the Student's t-test. A p<0.05 was accepted as the level of significance.

| SMILES | androgen-stimulated PSA secretion (PSA) | levels of hsp70 (hsp70) | androgen-stimulated cell growth (LNCaP cells) | cell growth without androgen stimulation (LNCaP cells; without Mib) | levels of c-fos (c-fos) | levels of hsp90 (hsp90) | androgen-induced mRNA of NKX 3.1, ODC, fkbp 51, Drg-1 and PSA ([1]; 1 nM Mib, DHA at 150 μM or higher) | levels of ARA70 (ARA70) | mRNA and protein levels of PSA and hK2 ([1]; summary statement) | ARE luciferase activity, androgen alone (androgen receptor) |
| --- | --- | --- | --- | --- | --- | --- | --- | --- | --- | --- |
| CCC=CCC=CCC=CCC=CCC=CC/C=C\CCC(=O)O [DHA, cis-4,7, 10, 13, 16, 19-docosahexaenoic acid] | decrease in androgen-stimulated PSA secretion | no inhibitory effects were observed | dose-dependent statistically significant decrease in cell growth | little response | unaltered | no inhibitory effects were observed | greatly inhibited the androgen-induced response | no inhibitory effects were observed |  |  |
| CCC=CCC=CCC=CCC=CC/C=C\CCCC(=O)O [EPA, cis-5,8, 11, 14, 17-eicosapentaenoic acid] | required higher EPA concentrations for significant inhibition | no inhibitory effects were observed | decreased androgen-stimulated cell growth |  |  | no inhibitory effects were observed |  |  | reduce both the mRNA and protein levels |  |
| C[C@@H]1CC2=CC(=O)CC[C@@H]2[C@H]2CC[C@@]3(C)[C@@H](CC[C@]3(C)O)[C@@H]21 [Mib, mibolerone] |  |  |  |  |  |  |  |  |  | strong androgenic induction of luciferase activity |
